Assay results from patent US20170226507A1, “COORDINATE CONTROL OF PATHOGENIC SIGNALING BY THE MIR-130/301 FAMILY IN PULMONARY HYPERTENSION AND FIBROPROLIFERATIVE DISEASES” (The Brigham and Women's Hospital, Inc., priority 2014, published 2017).
Entries after “also recorded” stand apart in the source; their conditions may differ.

Assays:
PAAFs [1] = assay: PAAFs in soft or stiff matrix: fibrotic gene expression, immunoblot, collagen secretion; assay type: cell-based, human
Description: Cell Culture and Reagents: Primary human pulmonary arterial adventitial fibroblast cells (PAAFs) were purchased and propagated in FGM cell culture media (Lonza). Experiments were performed at passages 3 to 6. Primary human pulmonary fibroblast cells (PFs) were purchased and propagated in FGM cell culture media (Lonza). Primary human pulmonary arterial endothelial cells (PAECs) were purchased and propagated in EGM-2 cell culture media (Lonza). Experiments were performed at passages 3 to 6. Primary human pulmonary arterial smooth muscle cells (PASMCs) were purchased and propagated in SmGM-2 cell culture media (Lonza). Experiments were performed at passages 3 to 9. HEK293T cells (American Type Culture Collection) were used and cultivated in DMEM containing 10% fetal bovine serum (FBS). Cells were propagated in coated collagen plastic (50 ug/mL) at 37° C. in a humidified 5% CO2 atmosphere. Collagen-coated hydrogel were purchased.
3D cell culture: Protocol was adapted from previously published protocol (Aragona M et al, 2013 Cell). Cells were embedded in a mixture of Growth Factor Reduced Matrigel (BD Biosciences) and Collagen-I (BD Biosciencres). Collagen-I solution was neutralized on ice with 0.1M NaOH in PBS and adjusted with 0.1N HCl to bring the pH of the solution to 7.5. The Collagen-I solution was then mixed on ice with Matrigel to obtain a final concentration of 1.2 mg/ml (soft matrices) or 3 mg/ml (stiff matrices). Cells were trypsinized, counted, resuspended in growth medium; then, 1 volume of cells was mixed with 1 volume of the ECM mix. 6-well plated were precoated with 1 ml of cellfree 50% medium/50% ECM, and left in the incubator until gelled; then, cells were seeded in drop on top of the pregelled ECM. After gelling, wells were supplemented with normal growth medium, which was changed every 2 days during the experiments.
Oligonucleotides and Transfection: Pre-miRNA oligonucleotides (pre-miR-130a, negative control pre-miR-NC1 and premiR-NC2) and custom designed tiny LNA oligonucleotides (tiny-130: 5′-[…]-3′ (SEQ ID NO: 52), and tiny-NC 5′-[…]-3′ (SEQ ID NO: 54)) were purchased from Life Technologies/Ambion and Exiqon, respectively. siRNAs for PPARγ and OCT4/POU5F1 were purchased from Santa Cruz Biotechnology. siRNA for TIMP2 was purchased from Life Technologies. On Target Plus siRNAs for YAP1, TAZ (WWTR1), LRP8 and scrambled control were purchased from ThermoScientific/Dhermacon. PAAF, PF, PAEC and PASMC were plated in collagen-coated dish (50 ug/mL) and transfected 24 h later at 70-80% confluence using pre-miRNA (5 nM), tiny-LNA (20 nM) or siRNA (25 nM) and Lipofectamine 2000 reagent (Life Technologies), according to the manufacturers' instructions. 8 hours after transfection cells were trypsinized and re-plated in the different hydrogel/3D-matrix.
Primary human pulmonary arterial adventitial fibroblast cells (PAAFs) were purchased (ScienCell Research Laboratories) and grown in FGM cell culture media (Lonza). Experiments were performed at passages 3 to 6. Primary human pulmonary arterial endothelial cells (PAECs) were grown in EGM-2 cell culture media (Lonza), and experiments were performed at passages 3 to 6. Primary human pulmonary arterial smooth muscle cells (PASMCs) were cultured in SmGM-2 cell culture media (Lonza), and experiments were performed at passages 3 to 9. HEK293T cells (American Type Culture Collection) were cultivated in DMEM containing 10% fetal bovine serum (FBS). […]

PAAFs [2] = assay: ECM remodeling experiment (naïve PAAFs plated on remodeled ECM); assay type: cell-based, human
Description: After the different treatment cells were fixed with PBS/PFA 4% for 10 min and permeabilized with PBS/Triton 100×0.1% for 10 min. Then cells were incubated with anti-YAP1 (#4912; 1/100; Cell signaling) at 4° C. overnight. Secondary antibodies coupled with Alexa-594 (Life Technologies) were used at 1:500. Nuclei were counterstained with DAPI (Sigma).
Following treatment, PAAFs were plated atop soft matrices (see below) in normal growth medium supplemented with 0.5% FBS. After three days, 10 ug/mL of puromycin was added to the growth medium for 48 hours to detach the cells from the matrix. Matrices were washed 3 times (PBS). Naïve PAAFs were then plated on top of these matrices supplemented with normal growth medium 0.5% FBS or harvested for assessment of collagen crosslinking (Picrosirius Red stain). Sixteen hours later, cells were harvested for immunofluorescence experiments or RNA extraction.
(§1) Picrosirius Red stain was achieved through the use of 5 μm paraffin sections stained with 0.1% Picrosirius Red (Direct Red80, Sigma-Aldrich) and counterstained with Weigert's hematoxylin to reveal fibrillar collagen. The sections were then serially imaged using with an analyzer and polarizer oriented parallel and orthogonal to each other. Microscope conditions (lamp brightness, condenser opening, objective, zoom, exposure time, and gain parameters) were constant throughout the imaging of all samples. A minimal threshold was set on appropriate control sections for each experiment in which only the light passing through the orthogonally-oriented polarizers representing fibrous structures (i.e., excluding residual light from the black background) was included. The threshold was maintained for all images across all conditions within each experiment. The area of the transferred regions that was covered by the thresholded light was calculated and at least 10 sections/vessel per condition were averaged together (Image J software).

[3] = system: hypoxia-induced PH in mice; assay: Hypoxia-induced PH in mice: BAPN (prevention, rescue) or GW3965 (prevention); assay type: in vivo, mouse
Source text: Finally, we wanted to determine if ApoE activity and/or LOX-dependent vascular stiffening were essential for ECM stiffening and PH development by miR-130/301. To assess the importance of ApoE activity, we attempted to prevent PH in mice via treatment with daily dietary ingestion of the liver-X nuclear hormone receptor (LXR) agonist GW3965, a known pharmacologic inducer of ApoE (Pencheva et al., 2014), simultaneously with hypoxia (FIGS. 62A-62H and 68A-H). Alternatively, experiments were designed to either prevent or reverse hypoxia-induced PH in mice via serial treatment with a pharmacologic inhibitor of LOX (Levental et al., 2009), β-aminopropionitrile BAPN, administered either simultaneously with hypoxia exposure (“prevention”) or after disease development (“reversal”) (FIGS. 62A-62H and 68A-H). In all cases of GW3965 or BAPN treatment, collagen crosslinking (FIG. 62D, 62H, FIG. 68) was inhibited, leading to decreased indices of PH, as reflected by RVSP (FIG. 62A, 62E), right ventricular remodeling (RV/LV+S ratio; FIG. 62B, 62F) and pulmonary arteriolar muscularization (FIG. 62C, 62G). GW3965 or BAPN treatment also reversed Pparγ and Lrp8 down-regulation (FIGS. 68A-68H) as well as reduced YAP nuclear localization (FIG. 62D, 62H) and YAP activation, as reflected by decreased Ctgf (FIGS. 68A-68H). Thus, considering the convergent data regarding pharmacologic manipulation of miR-130/301, APOE, and LOX, we can conclude that the YAP-TAZ-miR-130/301 circuit and its downstream network of targets act as master regulators of ECM remodeling in PH and represent a new set of targets for tailored molecular therapy in this disease.
To determine the effects of the LXR agonist GW3965 (Sigma-Aldrich) and consequent APOE induction on PH development, as previously described (Pencheva et al., 2014), mice were exposed to normobaric hypoxia and simultaneously assigned to control chow or chow supplemented with GW3965 (Research Diets, Inc.) at doses of 100 mg of drug per kilogram of mouse per day (based on average daily intake of […] of chow).
as §1
This protocol was adapted from a previously published protocol (Hu et al.). Mouse lung was weighed, minced, and incubated in 0.5 M acetic acid at 4° C. After overnight digestion, the acetic acid-soluble and insoluble fractions were isolated by centrifugation. The soluble fraction was stored at −80° C., while the insoluble fraction was digested by overnight incubation in 6M hydrochloric acid at 85° C. Concentrations of soluble and insoluble (gelatinous) collagen fractions were determined using a Sircol Soluble Collagen Assay Kit (Biocolor) with a colorimetric reaction (measured at 550 nm) and a provided collagen reference standard curve.

[4] = system: pulmonary tissue and pulmonary vasculature of mice; assay: Forced expression of miR-130a in mouse lung (SU5416, intrapharyngeal mimic) with or without rosiglitazone or BAPN
Description: In the presence of SU5416 (days of injection are highlighted in red) but in the absence of hypoxia, intrapharyngeal injection of wildtype mice was performed serially 4 times at 1 week intervals with 1 nmol of miR-NC or 1 nmol of miR-130a (days of administration are in black). During this period, mice were treated daily by oral gavage with 20 mg/kg of rosiglitazone or vehicle. At day 25, echocardiography and right heart catheterization was performed followed by euthanasia and blood/tissue sampling.
Eight-week-old mice (C57Bl6) were injected with SU5416 weekly (20 mg/kg/dose; Sigma-Aldrich), accompanied by 4 intrapharyngeal injections (once by week) of 1 nmol of miR-control (pre-miR-NC) or miR-130a (pre-miR-130a) mixed in 100 uL PBS solution containing 5% Lipofectamine 2000 (Life Technologies). Three days after the last injection, right heart catheterization was performed as previously described (9), followed by harvest of lung tissue for RNA extraction or paraffin embedding, as described above. Rosiglitazone (Cayman Chemicals) was dissolved in 0.25% carboxymethyl cellulose medium viscosity aqueous solution. This rosiglitazone solution versus vehicle control was delivered daily (20 mg/kg/day) by oral gavage to mice for 3 weeks.
After physiological measurements, blood was extracted by cardiac puncture for future analyses (hematocrit, plasma extraction). By direct right ventricular puncture, the pulmonary vessels were gently flushed with 1 cc of saline to remove the majority of blood cells, prior to harvesting cardiopulmonary tissue. The heart was removed, followed by dissection and weighing of the right ventricle (RV) and of the left ventricle+septum (LV+S). Organs were then harvested for histological preparation or flash frozen in liquid N2 for subsequent homogenization and extraction of RNA and/or protein. To further process lung tissue specifically, prior to excision, lungs were flushed with PBS at constant low pressure (˜10 mmHg) via right ventricular cannulation, followed by tracheal inflation of the left lung with 10% neutral-buffered formalin (Sigma-Aldrich) at a pressure of −20 cm H2O. After excision and 16 hours of fixation in 10% neutral-buffered formalin at 25° C., lung tissues were paraffin-embedded via an ethanol-xylene dehydration series, before being sliced into 5 μm sections (Hypercenter XP System and Embedding Center, Shandon).
Lung sections (5 μm) were deparaffinized and high temperature antigen retrieval was performed followed by blocking in TBS/BSA 5%, 10% goat serum and exposure to primary antibody and biotinylated secondary antibody (Vectastain ABC kit, Vector Labs). In most cases, color development was achieved by adding streptavidin-biotinylated alkaline phosphatase complex (Vector Labs) followed by Vector Red alkaline phosphatase substrate solution (Vector Labs). Levamisole was added to block endogenous alkaline phosphatase activity (Vector Labs). Pictures were obtained using an Olympus Bx51 microscope (40× objective). Small pulmonary vessels (<100 μm diameter) present in a given tissue section (>10 vessels per section) that were not associated with bronchial airways were selected for analysis (N>5 animals per group). Intensity of staining was quantified using ImageJ software (NIH). Degree of pulmonary arteriolar muscularization was assessed in paraffin-embedded lung sections stained for α-SMA by calculation of the proportion of fully and partially muscularized peripheral (<100 μm diameter) pulmonary arterioles to total peripheral pulmonary arterioles, as previously described (29). Medial thickness was also measured in α-SMA stained vessels (<100 μm diameter) using ImageJ software (NIH) and expressed as arbitrary units. All measurements were performed blinded to condition.

[5] = rosiglitazone or BAPN on top of miR-130a

ApoE: Recombinant ApoE (PeproTech) used at 5 μM in growth media
collagen content of conditioned media (collagen secretion) (PAAFs [1]; PAAFs): disrupted; also recorded: reversed | miR-130a-induced up-regulation of collagen, CTGF, and LOX (PAAFs [1]; PAAFs exposed to exogenous ApoE): resistant | collagen crosslinking of remodeled ECM (PAAFs [2]; Picrosirius Red): reversed | collagen, LOX, CTGF, and POU5F1/OCT4 in naïve cells plated on remodeled ECM (PAAFs [2]; RT-qPCR): negligible alterations | miR-130/301 in naïve cells plated on remodeled ECM (PAAFs [2]; RT-qPCR): reversed

N#CCCN [BAPN, β-aminopropionitrile]
perivascular collagen crosslinking ([3]; Picrosirius Red): inhibited; also recorded: decreased | Ctgf, collagen isoforms, and Lox in lung ([3]; RT-qPCR): blunted | whole lung collagen content and crosslinked collagen ([3]; Sircol assay): normalized by BAPN rescue treatment, and kept at baseline by preventative BAPN treatment; also recorded: nearly normalized by BAPN rescue treatment and largely maintained at baseline by BAPN prevention treatment | arteriolar muscularization ([3]; hypoxic mice): decreased; also recorded: both prevented and reversed | right ventricular hypertrophy (Fulton index, RV/LV+S) ([3]; hypoxic mice): decreased; also recorded: both prevented and reversed | RVSP ([3]; hypoxic mice, BAPN prevention and rescue, GW3965 100 mg/kg/day in chow): decreased; also recorded: both prevented and reversed | hypoxia mediated decreases of Lrp8 and Pparγ ([3]; in situ staining): reversed; also recorded: either prevented or rescued | hypoxia-mediated increases of α-SMA and YAP ([3]; in situ staining): reduced; also recorded: blunted | miR-130a-mediated changes in collagen, α-SMA, YAP staining and perivascular collagen crosslinking ([4]; BAPN 30 mg/kg/day, Picrosirius Red and in situ staining): decrease; also recorded: blunted | YAP activation and downstream PH manifestations ([4]; BAPN in miR-130-exposed mice): reversed | Ctgf, collagen isoforms and Lox expression in lung ([4]; RT-qPCR, BAPN on top of miR-130a): temper; also recorded: blunted | right ventricular systolic pressure (RVSP) ([4]; SU5416 mice, miR-130a 1 nmol x4, rosiglitazone 20 mg/kg daily oral or BAPN 30 mg/kg/day on top of miR-130a): lessened | total (soluble) collagen and crosslinked (insoluble) collagen in whole lung ([4]; Sircol / biochemical analysis, BAPN on top of miR-130a): reversed; also recorded: decreased | percentage of muscularized small pulmonary arterioles [4, 5]: lessened | right ventricular remodeling, RV/(LV+S) mass ratio [4, 5]: lessened
